The target in assay [1] is T1, TmGH1 (Thermotoga maritima, UniProt Q08638).
T1 sequence (Q08638 1-446): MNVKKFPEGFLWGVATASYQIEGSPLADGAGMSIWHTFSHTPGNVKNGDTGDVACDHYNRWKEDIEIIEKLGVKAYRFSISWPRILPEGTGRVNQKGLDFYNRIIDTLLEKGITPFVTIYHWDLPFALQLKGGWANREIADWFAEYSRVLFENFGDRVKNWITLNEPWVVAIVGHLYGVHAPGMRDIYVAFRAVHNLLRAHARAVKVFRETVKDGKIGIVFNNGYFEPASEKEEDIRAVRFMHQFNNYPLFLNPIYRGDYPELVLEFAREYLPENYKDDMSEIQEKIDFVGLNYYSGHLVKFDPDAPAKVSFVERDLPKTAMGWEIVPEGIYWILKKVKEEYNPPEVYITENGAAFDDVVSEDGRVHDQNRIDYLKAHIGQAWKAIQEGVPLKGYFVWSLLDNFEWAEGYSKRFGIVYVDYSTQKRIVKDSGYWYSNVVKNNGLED
To be noted: cited from earlier work.

In assay [2] the target is T1, TmGH1. The assay can be described thus: TmGH1 inhibition. The class given is biochemical.
The next assay has as its target T2, SsGH1 (Saccharolobus solfataricus, UniProt P22498).
T2 sequence (P22498 1-489): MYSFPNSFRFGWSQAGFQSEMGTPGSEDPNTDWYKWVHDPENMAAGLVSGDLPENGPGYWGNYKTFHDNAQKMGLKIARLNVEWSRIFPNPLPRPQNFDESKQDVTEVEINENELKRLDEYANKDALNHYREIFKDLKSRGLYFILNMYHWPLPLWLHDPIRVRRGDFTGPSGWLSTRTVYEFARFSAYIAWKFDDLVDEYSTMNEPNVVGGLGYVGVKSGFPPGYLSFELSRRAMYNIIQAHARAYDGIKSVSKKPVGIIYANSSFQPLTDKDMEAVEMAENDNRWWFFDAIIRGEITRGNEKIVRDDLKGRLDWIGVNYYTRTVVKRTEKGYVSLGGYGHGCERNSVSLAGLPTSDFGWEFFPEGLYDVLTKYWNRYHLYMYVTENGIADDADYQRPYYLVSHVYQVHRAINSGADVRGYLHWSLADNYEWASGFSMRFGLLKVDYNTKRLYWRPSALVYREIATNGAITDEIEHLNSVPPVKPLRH
Put plainly: SsGH1 inhibition. The class given is biochemical, Sulfolobus solfataricus.

In another assay the test system is TmGH1, SsGH1 and BtMan2A. The class given is biochemical. The following applies: 3 vs 4 (TmGH1, SsGH1), 7 vs 8 (BtMan2A).
The target of another assay is T3, BtMan2A (Bacteroides thetaiotaomicron, UniProt Q8AAK6).
T3 sequence (Q8AAK6 26-864): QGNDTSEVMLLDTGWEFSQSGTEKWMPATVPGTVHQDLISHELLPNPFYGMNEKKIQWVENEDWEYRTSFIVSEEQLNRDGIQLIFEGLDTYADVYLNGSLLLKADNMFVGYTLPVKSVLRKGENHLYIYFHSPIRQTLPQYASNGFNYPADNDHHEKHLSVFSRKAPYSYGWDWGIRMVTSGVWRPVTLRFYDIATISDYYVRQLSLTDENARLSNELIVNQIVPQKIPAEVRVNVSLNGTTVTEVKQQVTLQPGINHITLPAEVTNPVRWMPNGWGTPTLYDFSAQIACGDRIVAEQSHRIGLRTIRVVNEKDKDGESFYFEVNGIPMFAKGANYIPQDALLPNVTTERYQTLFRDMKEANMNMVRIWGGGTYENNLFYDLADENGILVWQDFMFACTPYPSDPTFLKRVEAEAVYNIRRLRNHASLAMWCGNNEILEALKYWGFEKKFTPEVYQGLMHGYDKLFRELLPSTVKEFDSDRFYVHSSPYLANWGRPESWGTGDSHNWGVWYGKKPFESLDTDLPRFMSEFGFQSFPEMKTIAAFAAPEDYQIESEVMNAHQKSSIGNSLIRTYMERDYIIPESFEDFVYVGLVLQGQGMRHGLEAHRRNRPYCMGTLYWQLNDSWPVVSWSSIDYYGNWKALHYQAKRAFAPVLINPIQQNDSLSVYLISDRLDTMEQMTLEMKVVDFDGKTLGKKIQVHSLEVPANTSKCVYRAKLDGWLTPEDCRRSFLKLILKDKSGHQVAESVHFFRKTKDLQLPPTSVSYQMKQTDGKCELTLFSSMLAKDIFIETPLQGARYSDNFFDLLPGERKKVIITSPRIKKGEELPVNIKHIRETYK
Put plainly: BtMan2A inhibition. In kind it is biochemical. To be noted: ratio of Ki for BtMan2A.

For `O[C@H]1[C@H](O)[C@@H](O)CN2CC[C@H](O)[C@H]12` [Compound 1, castanospermine], the “Fold better inhibitor than 1-deoxynojirimycin 2” value on TmGH1 [1] was “four‐fold”.
Consider `OC[C@H]1NC[C@H](O)[C@@H](O)[C@@H]1O` [Compound 2, 1‐deoxynojirimycin, reference compound], for which the figures for the Ki at TmGH1 [2] and on SsGH1 were 5.4 ± 0.5 µM and 3.1 ± 0.2 µM, respectively.
As for `C[C@H](O)[C@H]1NC[C@H](O)[C@@H](O)[C@@H]1O.Cl` [Compound 3], the “Fold better inhibitor than the isosteric compound with the gt conformation” value in the assay on TmGH1, SsGH1 and BtMan2A was “between six‐ and ten‐fold”. Besides, the results for the Ki at TmGH1 [2] and at SsGH1 were 16 ± 2 µM and 17 ± 1 µM, respectively.
On to `C[C@@H](O)[C@H]1NC[C@H](O)[C@@H](O)[C@@H]1O` [Compound 4], for which the Ki on TmGH1 [2] came to 135 ± 11 µM; on SsGH1 it was 105 ± 10 µM.
On to `C[C@H](O)[C@H]1NC[C@@H](O)[C@@H](O)[C@@H]1O.Cl` [Compound 7], for which the “Fold better inhibitor than the isosteric compound with the gt conformation” value in the assay on TmGH1, SsGH1 and BtMan2A is “between six‐ and ten‐fold”. The “Fold greater potency over 1-deoxymannojirimycin 6” value on BtMan2A is recorded as 27 fold.

As usually defined, the Ki is a measure of affinity in units of concentration, obtained from inhibition or displacement. A high value points to lower affinity.

Source of the values: PMC9908843 (Angewandte Chemie (International Ed. in English), 2023).
